Results on 13 molecules are retold here after patent US20240018123A1, “COMPOUND FOR INHIBITING OR DISINTEGRATING ANDROGEN RECEPTOR, AND PHARMACEUTICAL USE THEREOF” (KOREA RESEARCH INSTITUTE OF CHEMICAL TECHNOLOGY, priority 2020, published 2024).

In one data set the target is T1, Androgen receptor (AR) (Homo sapiens, UniProt P10275, T878A).
T1 construct: 5.5×10^5 LNCap cells were injected into each well of a 6-well plate; endogenous in cells; host or cells: LNCaP
T1 sequence (P10275 1-920 T878A): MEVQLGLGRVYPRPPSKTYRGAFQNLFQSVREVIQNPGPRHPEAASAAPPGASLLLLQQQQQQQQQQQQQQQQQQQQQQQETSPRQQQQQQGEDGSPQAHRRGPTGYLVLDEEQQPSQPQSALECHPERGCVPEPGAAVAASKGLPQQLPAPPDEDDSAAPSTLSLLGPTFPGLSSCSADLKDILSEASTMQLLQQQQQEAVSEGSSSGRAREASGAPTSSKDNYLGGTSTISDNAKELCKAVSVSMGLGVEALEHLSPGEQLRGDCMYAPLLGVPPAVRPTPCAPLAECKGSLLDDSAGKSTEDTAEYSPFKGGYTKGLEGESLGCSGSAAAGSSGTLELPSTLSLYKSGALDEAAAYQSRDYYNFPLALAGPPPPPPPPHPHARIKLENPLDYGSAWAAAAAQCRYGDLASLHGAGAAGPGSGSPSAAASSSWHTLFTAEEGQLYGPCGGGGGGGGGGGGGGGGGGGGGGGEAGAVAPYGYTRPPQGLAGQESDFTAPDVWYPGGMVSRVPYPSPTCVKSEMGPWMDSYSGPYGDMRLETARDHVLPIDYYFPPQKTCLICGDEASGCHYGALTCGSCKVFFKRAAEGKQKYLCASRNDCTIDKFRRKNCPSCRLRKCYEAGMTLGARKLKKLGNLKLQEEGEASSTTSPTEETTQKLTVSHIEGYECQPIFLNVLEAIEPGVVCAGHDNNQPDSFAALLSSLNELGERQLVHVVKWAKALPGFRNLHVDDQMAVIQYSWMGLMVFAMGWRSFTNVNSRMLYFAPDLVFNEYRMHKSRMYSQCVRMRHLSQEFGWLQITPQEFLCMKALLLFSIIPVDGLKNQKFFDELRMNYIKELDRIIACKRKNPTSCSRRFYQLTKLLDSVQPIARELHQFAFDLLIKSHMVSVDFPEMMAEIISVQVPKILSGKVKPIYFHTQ
Put plainly: Assessment of AR proteolytic activity (Western blotting of LNCap cell lysates). In kind it is cell-based. The note with it: 24 hours of treatment, Western blotting quantified with Image J. Summed up: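 AR degradation read by Western blot densitometry on RIPA lysates (pH 7.5, protease inhibitor cocktail). Lysates came from LNCap cells, 5.5×10^5 per well, exposed to compound for 24 hours.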
(Immunoblotting shows a protein as a band on a membrane.)

Description for VCaP cells: In order to evaluate the androgen receptor (AR) cytotoxicity of the compounds according to the present invention, the following experiment was conducted. Specifically, 1.5×10^3 (LNCaP) or 4×10^3 (VCaP, 22RV1), respectively, of LNCaP, VCaP, and 22RV1 cells were injected into each well of a 96-well plate. The next day, each well was treated with the compound at a final concentration of 3 nM, 10 nM, 30 nM, 100 nM, 300 nM, 1 μM, 3 μM, and 10 μM. […] After 6 days of treatment, Cell-titer-glo (promega) was treated and reacted for 10 minutes, and cell viability was measured with a multimode plate reader (PerkinElmer, Inc.), and the change was quantified compared to when DMSO was treated.

As a reminder, the CC50 is the concentration giving 50% cytotoxicity. A low value points to harm at low concentration. With `CC1(C)C(NC(=O)c2ccc(C3CCN(CCOC4CCN(c5ccc6nnn(C7CCC(=O)NC7=O)c(=O)c6c5)CC4)CC3)cc2)C(C)(C)C1Oc1ccc(C#N)c(Cl)c1` (centres unmarked) [Example 76, N-((1r,3r)-3-(3-chloro-4-cyanophenoxy)-2,2,4,4-tetramethylcyclobutyl)-4-(1-(2-((1-(3-(2,6-dioxopiperidin-3-yl)-4-oxo-3,4-dihydrobenzo[d][1,2,3]triazin-6-yl)piperidin-4-yl)oxy)ethyl)piperidin-4-yl)benzamide], half-maximal cytotoxicity in the data set on VCaP cells (CC50) was put at 35 nM. On Androgen receptor (AR), the “Degradation (1 μM treated in LNCaP, % AR remaining)” value is 30%.

For `CC1(C)C(NC(=O)c2ccc(N3CCN(C=C4CCN(c5ccc6nnn(C7CCC(=O)NC7=O)c(=O)c6c5)CC4)CC3)cc2)C(C)(C)C1Oc1ccc(C#N)c(Cl)c1` (centres unmarked) [Example 64, N-((1r,3r)-3-(3-chloro-4-cyanophenoxy)-2,2,4,4-tetramethylcyclobutyl)-4-(4-((1-(3-(2,6-dioxopiperidin-3-yl)-4-oxo-3,4-dihydrobenzo[d][1,2,3]triazin-6-yl)piperidin-4-ylidene)methyl)piperazin-1-yl)benzamide], the midpoint of cytotoxicity in the data set on VCaP cells, the CC50, lay at 76.2 nM. In addition, at Androgen receptor (AR), the “Degradation (1 μM treated in LNCaP, % AR remaining)” value came out at 56%.

Take `CC1(C)C(NC(=O)c2ccc(N3CCN(C(=O)C4CN(c5ccc6nnn(C7CCC(=O)NC7=O)c(=O)c6c5)C4)CC3)cc2)C(C)(C)C1Oc1ccc(C#N)c(Cl)c1` (centres unmarked) [Example 43, N-((1r,3r)-3-(3-chloro-4-cyanophenoxy)-2,2,4,4-tetramethylcyclobutyl)-4-(4-(1-(3-(2,6-dioxopiperidin-3-yl)-4-oxo-3,4-dihydrobenzo[d][1,2,3]triazin-6-yl)azetidine-3-carbonyl)piperazin-1-yl)benzamide]: in the data set on VCaP cells, the CC50 amounted to 37.3 nM. Moreover, at Androgen receptor (AR), the “Degradation (1 μM treated in LNCaP, % AR remaining)” value is listed as 33.6%.

In the data set with VCaP cells, `CC1(C)C(NC(=O)c2ccc(N3CCN(CCCC4CCN(C(=O)COc5ccc6nnn(C7CCC(=O)NC7=O)c(=O)c6c5)CC4)CC3)cc2)C(C)(C)C1Oc1ccc(C#N)c(Cl)c1` (centres unmarked) [Example 45, N-((1r,3r)-3-(3-chloro-4-cyanophenoxy)-2,2,4,4-tetramethylcyclobutyl)-4-(4-(3-(1-(2-((3-(2,6-dioxopiperidin-3-yl)-4-oxo-3,4-dihydrobenzo[d][1,2,3]triazin-6-yl)oxy)acetyl)piperidin-4-yl)propyl)piperazin-1-yl)benzamide] registered a CC50 of 46.6 nM. In addition, the “Degradation (1 μM treated in LNCaP, % AR remaining)” value at Androgen receptor (AR) came out at 21.1%.

Take `CC1(C)C(NC(=O)c2ccc(N3CCN(CC4CCN(C(=O)CN5CCN(c6ccc7nnn(C8CCC(=O)NC8=O)c(=O)c7c6)CC5)CC4)CC3)cc2)C(C)(C)C1Oc1ccc(C#N)c(Cl)c1` (centres unmarked) [Example 58, N-((1r,3r)-3-(3-chloro-4-cyanophenoxy)-2,2,4,4-tetramethylcyclobutyl)-4-(4-((1-(2-(4-(3-(2,6-dioxopiperidin-3-yl)-4-oxo-3,4-dihydrobenzo[d][1,2,3]triazin-6-yl)piperazin-1-yl)acetyl)piperidin-4-yl)methyl)piperazin-1-yl)benzamide]: the CC50 in the data set with VCaP cells is 330 nM. The “Degradation (1 μM treated in LNCaP, % AR remaining)” value on Androgen receptor (AR) was determined as 11.4%.

Consider `CC1(C)C(NC(=O)c2ccc(N3CCN(CCCOC4CCN(C(=O)C5CN(c6ccc7nnn(C8CCC(=O)NC8=O)c(=O)c7c6)C5)CC4)CC3)cc2)C(C)(C)C1Oc1ccc(C#N)c(Cl)c1` (centres unmarked) [Example 36, N-((1r,3r)-3-(3-chloro-4-cyanophenoxy)-2,2,4,4-tetramethylcyclobutyl)-4-(4-(3-((1-(1-(3-(2,6-dioxopiperidin-3-yl)-4-oxo-3,4-dihydrobenzo[d][1,2,3]triazin-6-yl)azetidine-3-carbonyl)piperidin-4-yl)oxy)propyl)piperazin-1-yl)benzamide], for which half-maximal cytotoxicity with VCaP cells (CC50) was put at 36.5 nM. For the same molecule, the “Degradation (1 μM treated in LNCaP, % AR remaining)” value at Androgen receptor (AR) amounted to 9.8%.

Consider `[C-]#[N+]c1ccc(OC2C(C)(C)C(NC(=O)c3ccc(N4CCN(CCc5cn(-c6ccc7nnn(C8CCC(=O)NC8=O)c(=O)c7c6)nn5)CC4)cc3)C2(C)C)cc1Cl` (centres unmarked) [Example 77, N-((1r,3r)-3-(3-chloro-4-isocyanophenoxy)-2,2,4,4-tetramethylcyclobutyl)-4-(4-(2-(1-(3-(2,6-dioxopiperidin-3-yl)-4-oxo-3,4-dihydrobenzo[d][1,2,3]triazin-6-yl)-1H-1,2,3-triazol-4-yl)ethyl)piperazin-1-yl)benzamide], for which half-maximal cytotoxicity in the data set with VCaP cells (CC50) was put at 46.6 nM. The “Degradation (1 μM treated in LNCaP, % AR remaining)” value at Androgen receptor (AR) was 74%.

For `CC1(C)C(NC(=O)c2ccc(N3CC4CC3CN4CC3CCN(c4ccc5nnn(C6CCC(=O)NC6=O)c(=O)c5c4)CC3)cc2)C(C)(C)C1Oc1ccc(C#N)c(Cl)c1` (centres unmarked) [Example 72, N-((1r,3r)-3-(3-chloro-4-cyanophenoxy)-2,2,4,4-tetramethylcyclobutyl)-4-(5-((1-(3-(2,6-dioxopiperidin-3-yl)-4-oxo-3,4-dihydrobenzo[d][1,2,3]triazin-6-yl)piperidin-4-yl)methyl)-2,5-diazabicyclo[2.2.1]heptan-2-yl)benzamide], the CC50 with VCaP cells came to 263 nM. In addition, the “Degradation (1 μM treated in LNCaP, % AR remaining)” value on Androgen receptor (AR) came to 92%.

Turning to `CC1(C)C(NC(=O)c2ccc(N3CCN(CC4CCN(CCNC(=O)COc5ccc6nnn(C7CCC(=O)NC7=O)c(=O)c6c5)CC4)CC3)cc2)C(C)(C)C1Oc1ccc(C#N)c(Cl)c1` (centres unmarked) [Example 60, N-((1r,3r)-3-(3-chloro-4-cyanophenoxy)-2,2,4,4-tetramethylcyclobutyl)-4-(4-((1-(2-(2-((3-(2,6-dioxopiperidin-3-yl)-4-oxo-3,4-dihydrobenzo[d][1,2,3]triazin-6-yl)oxy)acetamido)ethyl)piperidin-4-yl)methyl)piperazin-1-yl)benzamide], the half-maximal cytotoxic concentration (CC50) in the data set with VCaP cells is 3280 nM. In addition, the “Degradation (1 μM treated in LNCaP, % AR remaining)” value at Androgen receptor (AR) stood at 20.3%.

Molecule `CC1(C)C(NC(=O)c2ccc(C#CCC3CCN(CC4CCN(c5ccc6nnn(C7CCC(=O)NC7=O)c(=O)c6c5)CC4)CC3)cc2)C(C)(C)C1Oc1ccc(C#N)c(Cl)c1` (centres unmarked) [Example 88, N-((1r,3r)-3-(3-chloro-4-cyanophenoxy)-2,2,4,4-tetramethylcyclobutyl)-4-(3-(1-((1-(3-(2,6-dioxopiperidin-3-yl)-4-oxo-3,4-dihydrobenzo[d][1,2,3]triazin-6-yl)piperidin-4-yl)methyl)piperidin-4-yl)prop-1-yn-1-yl)benzamide] registered a CC50 in the data set with VCaP cells of 14.5 nM. Moreover, the “Degradation (1 μM treated in LNCaP, % AR remaining)” value on Androgen receptor (AR) turned out to be 14%.

Turning to `CC1(C)C(NC(=O)c2ccc(N3CCN(CCCOC4CCN(C(=O)COc5ccc6nnn(C7CCC(=O)NC7=O)c(=O)c6c5)CC4)CC3)cc2)C(C)(C)C1Oc1ccc(C#N)c(Cl)c1` (centres unmarked) [Example 38, N-((1r,3r)-3-(3-chloro-4-cyanophenoxy)-2,2,4,4-tetramethylcyclobutyl)-4-(4-(3-((1-(2-((3-(2,6-dioxopiperidin-3-yl)-4-oxo-3,4-dihydrobenzo[d][1,2,3]triazin-6-yl)oxy)acetyl)piperidin-4-yl)oxy)propyl)piperazin-1-yl)benzamide], the CC50 in the data set on VCaP cells was determined as 43.2 nM. Further, the “Degradation (1 μM treated in LNCaP, % AR remaining)” value at Androgen receptor (AR) stood at 27.3%.

Turning to `CC1(C)[C@H](NC(=O)c2ccc(N3CCN(CC4CCN(CC5CN(c6ccc7nnn(C8CCC(=O)NC8=O)c(=O)c7c6)C5)CC4)CC3)cc2)C(C)(C)[C@H]1Oc1ccc(C#N)c(Cl)c1` (some centres unmarked) [Example 67, N-((1r,3r)-3-(3-chloro-4-cyanophenoxy)-2,2,4,4-tetramethylcyclobutyl)-4-(4-((1-((1-(3-(2,6-dioxopiperidin-3-yl)-4-oxo-3,4-dihydrobenzo[d][1,2,3]triazin-6-yl)azetidin-3-yl)methyl)piperidin-4-yl)methyl)piperazin-1-yl)benzamide], in the data set on VCaP cells, the CC50 was 106 nM. Further, at Androgen receptor (AR), the “Degradation (1 μM treated in LNCaP, % AR remaining)” value is listed as 88%.

Turning to `CC1(C)C(NC(=O)c2ccc(C#CCC3CCN(C(=O)C4CN(c5ccc6nnn(C7CCC(=O)NC7=O)c(=O)c6c5)C4)CC3)cc2)C(C)(C)C1Oc1ccc(C#N)c(Cl)c1` (centres unmarked) [Example 87, N-((1r,3r)-3-(3-chloro-4-cyanophenoxy)-2,2,4,4-tetramethylcyclobutyl)-4-(3-(1-(1-(3-(2,6-dioxopiperidin-3-yl)-4-oxo-3,4-dihydrobenzo[d][1,2,3]triazin-6-yl)azetidine-3-carbonyl)piperidin-4-yl)prop-1-yn-1-yl)benzamide], the CC50 with VCaP cells is 31.9 nM. The “Degradation (1 μM treated in LNCaP, % AR remaining)” value on Androgen receptor (AR) turned out to be 9%.
